Data published in PubChem BioAssay (NCI).
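A five-concentration, 48-hour dose response in 96-well plates underlies each endpoint, interpolated linearly between surrounding concentrations. GI50 is the concentration that inhibits growth by half. TGI denotes the concentration required for complete inhibition of growth.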

Columns and labels:
Assay in all cases: NCI tumour cell line growth inhibition, 48 h
SF-268 CNS = tested on: SF-268 CNS
OVCAR-4 ovarian = tested on: OVCAR-4 ovarian
MDA-MB-435 = tested on: MDA-MB-435
CCRF-CEM leukemia = tested on: CCRF-CEM leukemia
A549 NSCLC = tested on: A549 NSCLC
SNB-75 CNS = tested on: SNB-75 CNS
HOP-92 NSCLC = tested on: HOP-92 NSCLC
BT-549 breast = tested on: BT-549 breast
MCF7 breast = tested on: MCF7 breast
RXF 393 renal = tested on: RXF 393 renal

| SMILES | GI50 (SF-268 CNS) | TGI (SF-268 CNS) | GI50 (OVCAR-4 ovarian) | TGI (OVCAR-4 ovarian) | GI50 (MDA-MB-435) | TGI (MDA-MB-435) | GI50 (CCRF-CEM leukemia) | TGI (CCRF-CEM leukemia) | GI50 (A549 NSCLC) | TGI (A549 NSCLC) | GI50 (SNB-75 CNS) | TGI (SNB-75 CNS) | GI50 (HOP-92 NSCLC) | TGI (HOP-92 NSCLC) | GI50 (BT-549 breast) | TGI (BT-549 breast) | GI50 (MCF7 breast) | TGI (MCF7 breast) | GI50 (RXF 393 renal) | TGI (RXF 393 renal) |
| --- | --- | --- | --- | --- | --- | --- | --- | --- | --- | --- | --- | --- | --- | --- | --- | --- | --- | --- | --- | --- |
| CN1CCC(=C(c2ccc(Cl)cc2)c2ccccn2)CC1 | > 100000 nM | > 100 µM | > 100000 nM | > 100 µM | 40700 nM | > 100 µM | 4370 nM | > 100 µM | > 100 µM | > 100 µM | 31 µM | > 100 µM | 16700 nM | > 100 µM | 79.8 µM | > 100 µM | > 100000 nM | > 100 µM | 54500 nM | > 100 µM |
| O=C(O)C1CC[N-]CC1.O=C(O)C1CC[N-]CC1.[NH2-].[NH2-].[Pt+4] | > 100000 nM | > 100 µM | > 100000 nM | > 100 µM | > 100000 nM | > 100 µM | > 100000 nM | > 100 µM | > 100 µM | > 100 µM | > 100 µM | > 100 µM | > 100000 nM | > 100 µM | > 100 µM | > 100 µM | > 100000 nM | > 100 µM | > 100000 nM | > 100 µM |
| Cc1[nH]c(N)nc(=S)c1CCCNc1ccccc1 |  | > 100 µM |  | > 100 µM |  | > 100 µM |  | > 100 µM |  | > 100 µM |  | > 100 µM |  | > 100 µM |  | > 100 µM |  | > 100 µM |  | > 100 µM |
| Cc1cc2c(C(C)C)c(O)c(O)c(/C=N/O)c2c(O)c1-c1c(C)cc2c(C(C)C)c(O)c(O)c(/C=N/O)c2c1O | 1540 nM | 11.4 µM | 1330 nM | 9.69 µM | 2780 nM | 12.1 µM | 3600 nM | 14.7 µM | 2.69 µM | 12.1 µM | 3.57 µM | 17.4 µM | 2890 nM | 13.5 µM | 2.42 µM | 13.8 µM | 2520 nM | 12.2 µM | 1490 nM | 6.36 µM |
| Cn1ccc(S(=O)(=O)N2CCC[C@H](Nc3nccc(-c4c(-c5cccc(O)c5)nc5occn45)n3)C2)n1 | 21400 nM | > 100 µM | 14500 nM | > 85.8 µM | 329 nM | 29.3 µM | 4470 nM | > 100 µM | 13.2 µM | 42.9 µM | 1.9 µM | > 89 µM | 7640 nM | 52.9 µM | 12.7 µM | 52.9 µM | 12800 nM | 55.3 µM | 4470 nM | 18.4 µM |
| C=CCc1cc(O)ccc1O | 16500 nM | > 100 µM | 14000 nM | 27 µM | 19900 nM | 57.1 µM | 2340 nM | 14.5 µM | > 100 µM | > 100 µM | 5.74 µM | > 100 µM | 42400 nM | > 100 µM | 6.16 µM | > 100 µM | 44300 nM | > 100 µM | 26300 nM | > 100 µM |
| Cc1ccc2c(-c3ccnc(Nc4cccc(C(F)(F)F)c4)n3)c(-c3ccccc3)nn2n1 | > 15200 nM | > 25 µM | 12000 nM | > 25 µM | 6770 nM | > 25 µM | 7770 nM | > 25 µM | 6.18 µM | > 25 µM | 3.87 µM | > 25 µM | > 25000 nM | > 25 µM | 15 µM | > 24 µM | 2850 nM | > 25 µM | 2950 nM | 8.57 µM |
| COc1cc2c3c(n(CCCNCCCCN)c(=O)c2cc1OC)-c1cc2c(cc1C3=O)OCO2 | 3100 nM | 10.3 µM | 7310 nM | 29.9 µM | 6110 nM | 20.4 µM |  | > 40.1 µM | 5.48 µM | 25 µM | 10.7 µM | 32.2 µM | 738 nM | 3.8 µM | 2.43 µM | 16.6 µM | 82.9 nM | 22.5 µM | 301 nM | 11.4 µM |
| C/C=C(/C)C(=O)OC1C=C(CO)C(=O)C(OC(=O)C2(C)OC2C)C1C(C)C (stereo unspecified) | 2460 nM | 6.32 µM | 1930 nM | 3.91 µM | 1490 nM | 2.88 µM | 653 nM | 5.25 µM | 2.6 µM | 7.7 µM |  |  | 1650 nM | 3.33 µM | 2.02 µM | 4.35 µM | 1190 nM | 4.14 µM | 1770 nM | 3.27 µM |
| Oc1c(Cl)cc(Cl)c(Cl)c1Cc1c(O)c(Cl)cc(Cl)c1Cl | 1080 nM | 17.5 µM | 2520 nM | 14 µM | 1930 nM | 12.8 µM |  |  | 1.99 µM | 12.9 µM | 1.65 µM | 10.6 µM | 274 nM | 0.682 µM | 1.26 µM | 10.3 µM | 1340 nM | 13.9 µM | 4040 nM | 22.4 µM |
| CN1C(=O)[C@@H](CC2CCCC2)N(C2CCCC2)c2nc(Nc3cc(Cl)c(O)c(Cl)c3)ncc21 | 33000 nM | > 100 µM | 25800 nM | > 100 µM | 27800 nM | > 100 µM | 18600 nM | 84.2 µM | 22.1 µM | > 100 µM |  |  | 13600 nM | 66.7 µM | 18.2 µM | 53.2 µM | 15200 nM | > 100 µM | 13500 nM | 52 µM |
| CCCCNC(=O)CC1=C(C)/C(=C/c2[nH]c(-c3ccc[nH]3)cc2OC)N=C1C | 2660 nM | 15 µM | 2120 nM | 19.2 µM | 2870 nM | 9.71 µM | 1710 nM | 8.88 µM | 3.6 µM | 11.2 µM | 1.85 µM | 7.36 µM | 2170 nM | 7.09 µM | 3.74 µM | 19.9 µM | 2700 nM | 9.39 µM | 3290 nM | 11.6 µM |
| CC(=O)NC(CCc1ccc(Cl)c(Cl)c1)c1cccc(O)c(=O)c1 (stereo unspecified) | 517 nM | 14.7 µM | 302 nM | 40.4 µM | 1070 nM | 18.9 µM | 398 nM | 16.3 µM | 0.527 µM | 11.5 µM | 1.87 µM | 17.1 µM | 1930 nM | 15.7 µM | 0.803 µM | 12.8 µM | 412 nM | 37.4 µM | 722 nM | 14.9 µM |
| C=C(CC)C(=O)c1ccc(OCC(=O)O)c(Cl)c1Cl |  | 33.1 µM |  | 43.6 µM |  | 32.3 µM |  | > 76.3 µM |  | > 100 µM |  | 50 µM |  | 25.2 µM |  | 17.2 µM |  | 20.8 µM |  | 34.2 µM |
| COC(=O)C1C(=O)C(C(=O)OC)C2CCC1N2C (stereo unspecified) |  | > 100 µM |  | > 100 µM |  | > 79.3 µM |  | > 78.1 µM |  | > 100 µM |  | > 100 µM |  | > 77.3 µM |  | 27.3 µM |  | > 100 µM |  | > 100 µM |
| N#CC(Cl)CS(=O)(=O)c1ccccc1 (stereo unspecified) |  | 24.3 µM |  | 4.24 µM |  | 32.1 µM |  |  |  | 41.7 µM |  | 37.1 µM |  | 4.1 µM |  | 30.9 µM |  | 32.8 µM |  | 6.31 µM |
| CCN(CC)CCN1C(=O)c2c(c3c4cccc(Cl)c4n(C4OC(CO)C(OC)C(O)C4O)c3c3[nH]c4c(Cl)cccc4c23)C1=O (stereo unspecified) | < 0.1 nM |  |  |  |  | 0.217 µM | < 0.1 nM |  | < 0.0001 µM |  |  |  | 0.362 nM |  |  | 1.66 µM |  | 0.199 µM | < 0.1 nM |  |
| CCN1CCCCCCCCCC(=N/O)/C(=N\O)C1 |  | > 100 µM |  |  |  | > 100 µM |  | > 100 µM |  | > 100 µM |  | > 100 µM |  | > 100 µM |  | > 100 µM |  | > 100 µM |  | > 100 µM |
| Cc1c(Br)c(Br)c2c3c1nc(N1CCNCC1)n3CCC2 | 2120 nM | 4.78 µM | 2460 nM | 6.1 µM | 1730 nM | 3.22 µM |  |  | 1.87 µM | 4.01 µM | 1.96 µM | 4.1 µM | 74.4 nM | 1.12 µM | 5.36 µM | 20.2 µM | 1750 nM | 3.49 µM | 1700 nM | 3.41 µM |
| NC(=O)NC(=O)Nc1ccc(Br)cc1 |  | > 16.5 µM |  | > 38.5 µM |  | > 22 µM |  | > 15.3 µM |  | > 100 µM |  |  |  | > 100 µM |  | > 100 µM |  | > 100 µM |  | > 100 µM |
| Oc1ccc(/C=N/NC(=S)Nc2ccccc2)nc1 | 969 nM | > 100 µM | 579 nM | > 100 µM | 2190 nM | > 100 µM | 938 nM | > 100 µM | 2.33 µM | 26.3 µM |  |  | 439 nM | 6.92 µM | 1.7 µM | > 100 µM | 2730 nM | > 100 µM | 667 nM | 4.91 µM |
| CN(C)Cc1ccc(O)c(CN(C)C)n1 |  | > 100 µM |  | > 100 µM |  | > 100 µM |  |  |  | > 100 µM |  | > 100 µM |  | > 100 µM |  | > 100 µM |  | > 100 µM |  | > 100 µM |
| CCN(CC)Cc1cc(Nc2ccnc3ccc(OC)cc23)ccc1O | 3610 nM | 19.8 µM | 2540 nM | 11.6 µM | 3080 nM | 12.3 µM |  |  | 4.37 µM | 18.1 µM | 4.88 µM | 18.8 µM | 2040 nM | 7.13 µM | 9.53 µM | 27.9 µM | 2710 nM | 9.62 µM | 2790 nM | 10.9 µM |
